According to patent US11802110B2, “2-amino-N-(arylsulfinyl)-acetamide compounds as inhibitors of bacterial aminoacyl-tRNA synthetase” (priority 2016, dated 2023):
Converted amounts (≈) assume the structure as drawn. “And” between values parts separate entries of the source, which are not always exact repeats. Identical values can stand only once. Like-named read-outs stand apart in the source and are kept apart here.

How the values were obtained:
Escherichia Coli LeuRS = Escherichia Coli LeuRS (Escherichia coli (strain K12), UniProt P07813); experiment: Study 1 - Isothermal titration calorimetry (ITC), separated diastereomers; format: binding
Experimental: The dissociation constants (KD) of the separated diastereomers (V-i) and (V-ii) for binding to Escherichia Coli LeuRS were determined by isothermal titration calorimetry (ITC).
Escherichia coli BL21(DE3) cells transformed with plasmid pQE-60 containing the open-reading frame sequence of one targeted aaRS (i.e., LeuRS) were induced with 1 mM IPTG (isopropyl β-D-1-thiogalactopyranoside) for 3 hours at 37° C. Bacterial cells were harvested and lysed with 20 mM HEPES (4-(2-hydroxyethyl)-1-piperazinylethane-sulfonic acid) (pH 7.5), 300 mM NaCl, 15 mM imidazole and 1 mM DTT (1,4-dithio-D-threitol). The pathogenic aaRS was first purified by nickel affinity standard chromatography. The eluted protein was concentrated and then further purified by gel filtration using 50 mM HEPES (pH 7.5), 150 mM NaCl buffer.
ITC studies were carried out using a Microcal ITC200 instrument (GE Healthcare). […] The titrations were performed at 25° C. with 10-30 μM E. Coli LeuRS in 50 mM HEPES, 150 mM NaCl, pH 7.5 buffer containing 1% DMSO (v/v). The protein solution in the 200 μL sample cell was titrated with the inhibitor solution (diluted to 100-300 μM in the same buffer as the protein) using 1-2 μL injections every 140 seconds. All titrations were repeated at least three times. To correct for heats of dilution and mixing, the final baseline consisting of small peaks of identical size at the end of each experiment was subtracted. The experimental data were fitted to a theoretical titration curve (one site model) using MicroCal Origin 7 software.

[1] = tested on: wild type E. Coli strain BW25113; experiment: Study 3 - Antibacterial activity (EC50), dilution susceptibility test M07-A9; format: cell-based, Escherichia coli; conditions: for EC50: Escherichia coli
Experimental: The antibacterial activity of the separated diastereomers (V-i) and (V-ii) was determined against wild type E. Coli strain BW25113.
The method described in “Methods for Dilution Antimicrobial Susceptibility Tests for Bacteria that Grow Aerobically; Approved Standard—Ninth Edition” (M07-A9; Vol. 32, No. 2) was used.

[2] = ITC, 25° C., pH 7.5, single replicates 1-3
[3] = ITC, 25° C., pH 7.5, single replicates 1-3, read-out: K (binding constant) (converted)
[4] = read-out: KD (dissociation constant)

Escherichia Coli LeuRS, sequence (P07813 whole entry): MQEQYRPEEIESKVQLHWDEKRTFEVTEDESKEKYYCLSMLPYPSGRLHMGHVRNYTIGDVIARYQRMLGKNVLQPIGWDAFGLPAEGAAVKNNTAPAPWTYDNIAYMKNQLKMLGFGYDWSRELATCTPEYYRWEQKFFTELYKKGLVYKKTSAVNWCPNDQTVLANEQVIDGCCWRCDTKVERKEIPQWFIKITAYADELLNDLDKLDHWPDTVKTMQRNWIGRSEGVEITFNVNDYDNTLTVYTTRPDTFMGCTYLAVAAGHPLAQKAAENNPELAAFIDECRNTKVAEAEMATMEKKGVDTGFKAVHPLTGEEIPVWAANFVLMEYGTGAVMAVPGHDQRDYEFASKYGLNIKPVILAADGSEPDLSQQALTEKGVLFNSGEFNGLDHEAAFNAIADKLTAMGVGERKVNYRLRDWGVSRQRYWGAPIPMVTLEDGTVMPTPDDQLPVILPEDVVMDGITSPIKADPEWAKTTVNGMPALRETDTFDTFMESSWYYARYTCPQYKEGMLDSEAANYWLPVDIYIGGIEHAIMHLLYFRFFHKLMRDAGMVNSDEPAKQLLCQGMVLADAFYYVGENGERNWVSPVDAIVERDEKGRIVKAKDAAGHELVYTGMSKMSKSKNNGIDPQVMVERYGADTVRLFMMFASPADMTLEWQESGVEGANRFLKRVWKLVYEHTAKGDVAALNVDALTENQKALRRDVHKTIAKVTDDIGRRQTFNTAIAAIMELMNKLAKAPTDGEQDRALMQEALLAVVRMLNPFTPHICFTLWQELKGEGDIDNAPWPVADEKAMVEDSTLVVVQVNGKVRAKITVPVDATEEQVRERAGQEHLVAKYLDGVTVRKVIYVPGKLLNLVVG

Q: What does the source list for `CC(C)C[C@H](N)C(=O)N[S@+]([O-])c1ccccc1` (single isomer, unassigned) [V-i]?
A: binding to E. coli LeuRS (in words) (Escherichia Coli LeuRS; ITC): binds with high affinity; K (binding constant) (Escherichia Coli LeuRS; [2]): 2.4e+08 M⁻¹; ΔS (Escherichia Coli LeuRS; [2]): −7.96 cal/mol/° C. and −12.5 cal/mol/° C. and −7.03 cal/mol/° C.; Kd (Escherichia Coli LeuRS; [3]): 6.49 nM and 3.14 nM; Kd (Escherichia Coli LeuRS; [4]): 4.6 nM; antibacterial activity (in words) [1]: potent antibacterial agent; EC50 [1]: 4 µg/mL (≈ 15.7 µM)

Q: For `CC(C)C[C@H](N)C(=O)N[S@@+]([O-])c1ccccc1` (single isomer, unassigned) [V-ii], which “K (binding constant)” value (Escherichia Coli LeuRS; [2]) is on record?
A: The value was 83500 M⁻¹ and 77000 M⁻¹.

Q: And the “ΔH” value (Escherichia Coli LeuRS; [2])?
A: The value was -5.69 kcal/mol and -5.899 kcal/mol and -6.2 kcal/mol.

Q: What about the “ΔS” value (Escherichia Coli LeuRS; [2]) of the same compound?
A: The value was “+3.44 cal/mol/° C. and +2.28 cal/mol/° C. and +1.56 cal/mol/° C”.

Q: What about the Kd (Escherichia Coli LeuRS; [3]) of the same compound?
A: Its Kd is 15000 nM.

Q: What about the Kd (Escherichia Coli LeuRS; [4]) of the same compound?
A: The Kd was 13000 nM.

Q: What about the EC50 [1] of the same compound?
A: Its EC50 is greater than 128 µg/mL.
